The text below walks through data of patent US20030212034A1, “Method of treatment of obesity and paralyzed muscle and ergogenic aids” (priority 2002, published 2003).

What all share (assay type): in vivo, rat
For assay [1], the system named is carnitine palmitoyl-transferase. The experiment in a line: Muscle carnitine palmitoyl-transferase activity after chronic AICAR injection. The following applies: chronic AICAR 1 mg/g daily 4 wk. The procedure: (§1) To determine the effect of chronic injection of AICAR on muscle enyzme activities or expression and on muscle GLUT4, rats were injected subcutaneously (between 8 and 10 a.m.) with AICAR (1 mg/g) or saline vehicle daily for 28±1 days in succession. Beginning with the first injection, controls were pair fed with AICAR-injected rats. Rats were anesthetized by intraperitoneal injection of pentobarbital sodium 22-25 hours after the last AICAR injection and the white and red regions of the quadriceps and the soleus muscles were removed and frozen as described above. Muscles were kept frozen at −70° C. until analyzed. Liver, heart, kidney, and fat pads were weighed.
(§2) For enzyme activity measurements, 10% homogenates were made from the respective muscles in 175 mM KCl, 10 mM GSH, 2 mM EDTA, pH 7.4. This homogenate was frozen and thawed 3 times and mixed thoroughly prior to enzymatic measurements. For succinate dehydrogenase and lactate dehydrogenase, an aliquot of the homogenate was centrifuged at 700×g for 10 min at 4° C. The remainder of the assays were performed on aliquots and dilutions of the mixed whole homogenate. Assays were performed by the following methods: citrate synthase, succinate dehydrogenase, the mitochondrial fraction of malate dehydrogenase, hexokinase, lactate dehydrogenase, carnitine palmitoyl transferase and hydroxyacyl-CoA dehydrogenase. Srere, P. A. Methods in Enzymology 13:3-6, 1969; King, T. E. Methods Enzymol 10:322-335, 1967; Shonk, C. E. & G. E. Boxer, Cancer Res. 24:709-721, 1964; Uyeda, K., & E. Racker, J. Biol Chem 240:4682-4688, 1965; Pesce, A., et al. J. Biol. Chem. 239:1753-1761, 1964; Baldwin, K. M., et al. Am. J. Physiol 222:373-378, 1972; Mole, P. A., et al. J. Clin. Invest. 50:2323-2330, 1971; Kobayashi, A. et al. J. Biochem. 119:775-782, 1996.

The test system of another assay is malate dehydrogenase. Nature of the assay: Muscle malate dehydrogenase activity after chronic AICAR injection. The following applies: AICAR 1 mg/g daily 4 wk, FIG. 4. As to the method:
as §1, §2

The test system of assay [2] is AMP-activated protein kinase (AMPK). The experiment in a line: AMPK activity in denervated and contralateral muscles after acute AICAR injection. As to conditions: acute AICAR 1 mg/g. An excerpt: (§3) Rats were anesthetized with ether and the sciatic nerve of the right hindlimb was severed. The left hindlimb was sham operated to serve as a control. Both skin wounds were closed with a metal clips. The rats used for the acute study were also implanted with a jugular catheter which was exteriorized on the back of the neck at the time of denervation for rapid administration of anesthesia.
Rats were denervated between 8:30 a.m. and 10:30 a.m. and were then given 25 g of food. Rats were handled twice during the day to accustom them to being handled. The rats were given a single subcutaneous injection 24 hours. after surgery of either AICAR (1 mg/g body weight) in sterile 0.9% NaCl or with just 0.9% NaCl, and were subsequently anesthetized intravenously. Soleus and gastrocnemius muscles from both sham and denervated sides were extracted and quick frozen in liquid nitrogen for analysis. AMPK activity and acetyl-Co A carboxylase (ACC) activity were determined as previously described. Winder W W & Hardie D G, Am J. Physiol 270 (Endocrinol Metab 33): E299-E304, 1996. Because this analysis is done on homogenates prepared by ammonium sulfate precipitation, only those effects on AMPK activity modified by phosphorylation are measured. […] Because ACC is a target for phosphorylation by AMPK, and because ACC activity has been reported to decrease in response to phosphorylation by AMPK, ACC activity is measured to give an indication of the in vivo actions of AMPK.

Another assay relates to GLUT4. Nature of the assay: GLUT4 western blot in 3-day denervated and contralateral muscles after AICAR injections. The procedure: as §3
Muscle was ground to a powder under liquid nitrogen and homogenized ([…]) in HEPES buffer [25 mM HEPES, 1 mM EDTA, 1 mM benzamadine, 1 mM 4-(2-aminoethyl)-benzene+sulfonyl fluoride, 1 μM leupeptin, 1 μM antitrypsin, 1 μM aprotinin, pH 7.5]. This homogenate was then diluted with water and Laemmli's buffer (1 mL homogenate:2 mL water: 1 mL buffer) immediately before loading. 20 μL of this homogenate were then loaded onto a 10% SDS-PAGE mini gel (Tris-HCl ready gels, BioRad, Hercules, Calif.). Samples were subjected to electrophoresis at 200 V for 45 minutes. Proteins were transferred from gel to nitrocellulose membrane at 100V for 50 minutes. Membranes were blocked in 5% non-fat milk (BioRad, Hercules, Calif.) in PBST (139 mM NaCl, 2.7 mM KH2PO4, 9.9 mM Na2HPO4, and 0.05% Tween-20) and were then left overnight with GLUT4 polyclonal antibody (Biogenesis, Kingston, N.H.) in 5% dried milk solution (1:5000 dilution). After washing twice in PBST, and twice in PBS (139 mM NaCl, 2.7 mM KH2PO4, 9.9 mM Na2HPO4), the membranes were exposed to horseradish peroxidase-conjugated donkey anti-rabbit IgG (Amersham Life Sciences, Arlington Heights, Ill.) for 1 h. at room temperature. After again washing twice with PBST and twice with PBS, the membranes were incubated in enhanced chemoluminescence-detection reagent and then visualized on enhanced chemoluminescence hyperfilm (Amersham Life Sciences). Relative amounts of GLUT4 were then quantified using a Hewlett Packard Scan Jet 6200C and SigmaGel software (SPSS, Chicago, Ill.). Western blot data are expressed as arbitrary units where individual values were divided by the mean basal GLUT4 value (sham operated leg/injected with 0.9%/NaCl solution).
Rats were injected either with AICAR (1 mg in 0.9% NaCl/g body weight) or a 0.9% NaCl solution ˜0, ˜24, and ˜48 hours after denervation and were then sacrificed ˜72 hours after denervation without injection. Rats were anesthetized with sodium pentobarbital (4.8 mg/100 g. body weight), soleus and gastrocnemius muscles from both sham and denervated sides were extracted, and muscles were quick frozen in liquid nitrogen and stored for analysis.
Rats were denervated as described above between 8:00 and 10:00 and were immediately injection with either 0.9% NaCl solution (n=4), 0.1 mg AICAR in 0.9% NaCl/g body weight (n=4), 0.5 mg AICAR in 0.9% NaCl/g body weight (n=3), or 1 mg AICAR in 0.9% NaCl/g body weight (n=4). Rats of each treatment group were subsequently injected with the respective AICAR solutions at ˜24 and ˜48 hours after denervation. Rats were killed ˜72 hours after denervation without an AICAR injection and muscles were collected as described above.
A general note: In western blotting, separated proteins are transferred to a membrane and probed.

Consider `NC(=O)c1ncn([C@@H]2O[C@H](CO)[C@@H](O)[C@H]2O)c1N` [AICAR, 5-aminoimidazole-4-carboxamide-1-β-D-ribofuranoside], for which the CPT activity in assay [1] (red quadriceps) stood at 0.46 ± 0.02 µmol/g/min; in assay [1] (soleus) it was 0.62 ± 0.02 µmol/g/min; in assay [1] (white quadriceps), 0.16 ± 0.01 µmol/g/min. In addition, the “malate dehydrogenase activity vs controls” value is “not in red quadriceps” with malate dehydrogenase (red quadriceps), “all increased” with malate dehydrogenase (soleus) and “all increased” in the assay on malate dehydrogenase (white quadriceps). The “AMPK activity vs saline-treated contralateral innervated muscles” value in assay [2] (contralateral innervated gastrocnemius, FIG. 7) is “significantly (P<0.05) elevated”; in assay [2] (contralateral innervated soleus, FIG. 8), “significantly (P<0.05) elevated”; in assay [2] (denervated gastrocnemius, FIG. 7), “significantly (P<0.05) elevated”. Besides, the “GLUT4 content, percent intensity of saline-treated contralateral innervated controls” value with GLUT4 (contralateral innervated gastrocnemius, AICAR 1 mg/g for 3 days) turned out to be 130.1%; in the assay on GLUT4 (denervated gastrocnemius, AICAR 1 mg/g for 3 days, saline denervated 60.1%), 106.6%. Further, the “dose dependent response of GLUT4 vs saline-treated denervated gastrocnemius” value with GLUT4 (denervated gastrocnemius, doses 0.1, 0.5, 1 mg/g, result for the 1 mg/g dose, FIG. 11) was “only dose that significantly raises GLUT4 content”. Moreover, the “increase of GLUT4 vs. saline-treated denervated gastrocnemius controls” value in the assay with GLUT4 (denervated gastrocnemius, subcutaneous AICAR injections) was found to be 80%. Also, in the assay on GLUT4 (denervated soleus, AICAR 1 mg/g for 3 days, saline denervated 72.6%, not significant), the “GLUT4 content, percent of saline-treated contralateral controls” value came to 85.4%. Besides, the “dose dependent response of GLUT4 vs saline-treated innervated gastrocnemius” value with GLUT4 (innervated gastrocnemius, doses 0.1, 0.5, 1 mg/g, result for the 1 mg/g dose, FIG. 11) is “only dose that significantly raises GLUT4 content”.
